Laboratory results published in ChEMBL document CHEMBL3877326, “Design, synthesis and evaluation of some N-methylenebenzenamine derivatives as selective acetylcholinesterase (AChE) inhibitor and antioxidant to enhance learning and memory” (Bioorg Med Chem, 2017).
Active and inactive are the calls of the source. The rule behind the calls is not given here.

Experiments:
[1] = Selectivity index, ratio of IC50 for horse serum BuChE to IC50 for electric eel AChE
[2] = target: T1, Acetylcholinesterase (Electrophorus electricus, UniProt O42275); experiment: Inhibition of electric eel AChE using acetylthiocholine iodide as substrate preincubated for 20 mins followed by substrate addition by Ellman's method
[3] = target: Cholinesterase (Equus caballus, UniProt P81908); experiment: Inhibition of horse serum BuChE using butyrylthiocholine iodide as substrate preincubated for 20 mins followed by substrate addition by Ellman's method; type: ADME
[4] = test system: Rattus norvegicus; experiment: Cognition enhancement activity in Charles Foster albino rat model of spatial working memory assessed as escape latency at 10 mg/kg, po for administered from day 1 to 10 measured 1 hr post last dose on day 7 by Morris water maze test (reference value: 17.45 +/- 0.62 sec); type: functional
[5] = test system: Rattus norvegicus; experiment: Cognition enhancement activity in Charles Foster albino rat model of spatial working memory assessed as escape latency at 10 mg/kg, po for administered from day 1 to 10 measured 1 hr post last dose on day 9 by Morris water maze test (reference value: 17.38 +/- 0.79 sec); type: functional
[6] = test system: Rattus norvegicus; experiment: Cognition enhancement activity in Charles Foster albino rat model of spatial working memory assessed as escape latency at 10 mg/kg, po for administered from day 1 to 10 measured 1 hr post last dose on day 8 by Morris water maze test (reference value: 16.97 +/- 0.8 sec); type: functional
[7] = test system: Rattus norvegicus; experiment: Cognition enhancement activity in Charles Foster albino rat model of spatial reference memory assessed as increase in time spent in target quadrant during probe trial at 10 mg/kg, po for 4 days administered from day 1 to 4 measured 1 hr post last dose on day 4 by Morris water maze test; type: functional, organism-based
[8] = test system: Rattus norvegicus; experiment: Cognition enhancement activity in Charles Foster albino rat model of spatial reference memory assessed as decrease in escape latency at 10 mg/kg, po administered from day 1 to 2 measured 1 hr post last dose on day 2 by Morris water maze test; type: functional, organism-based
[9] = test system: Rattus norvegicus; experiment: Cognition enhancement activity in Charles Foster albino rat model of spatial working memory assessed as escape latency at 10 mg/kg, po for administered from day 1 to 10 measured 1 hr post last dose on day 10 by Morris water maze test (reference value: 14.12 +/- 0.78 sec); type: functional
[10] = Antioxidant activity assessed as H2O2 radical scavenging activity at 10 to 100 ug/ml incubated for 10 mins by UV-Visible spectrophotometric method; type: functional
[11] = Antioxidant activity assessed as DPPH radical scavenging activity at 10 to 100 ug/ml incubated for 30 mins under dark condition; type: functional
[12] = test system: Rattus norvegicus; experiment: Cognition enhancement activity in Charles Foster albino rat model of spatial working memory assessed as escape latency at 20 mg/kg, po for administered from day 1 to 10 measured 1 hr post last dose on day 8 by Morris water maze test (reference value: 16.97 +/- 0.8 sec); type: functional
[13] = test system: Rattus norvegicus; experiment: Cognition enhancement activity in Charles Foster albino rat model of spatial reference memory assessed as increase in time spent in target quadrant during probe trial at 10 to 30 mg/kg, po administered from day 1 to 4 measured 1 hr post last dose on day 4 by Morris water maze test; type: functional, organism-based
[14] = test system: Rattus norvegicus; experiment: Cognition enhancement activity in Charles Foster albino rat model of spatial working memory assessed as escape latency at 30 mg/kg, po for administered from day 1 to 10 measured 1 hr post last dose on day 8 by Morris water maze test (reference value: 16.97 +/- 0.8 sec); type: functional
[15] = test system: Rattus norvegicus; experiment: Cognition enhancement activity in Charles Foster albino rat model of spatial working memory assessed as escape latency at 30 mg/kg, po for administered from day 1 to 10 measured 1 hr post last dose on day 7 by Morris water maze test (reference value: 17.45 +/- 0.62 sec); type: functional
[16] = test system: Rattus norvegicus; experiment: Cognition enhancement activity in Charles Foster albino rat model of spatial working memory assessed as escape latency at 30 mg/kg, po for administered from day 1 to 10 measured 1 hr post last dose on day 10 by Morris water maze test (reference value: 14.12 +/- 0.78 sec); type: functional
[17] = test system: Rattus norvegicus; experiment: Cognition enhancement activity in Charles Foster albino rat model of spatial working memory assessed as escape latency at 20 mg/kg, po for administered from day 1 to 10 measured 1 hr post last dose on day 10 by Morris water maze test (reference value: 14.12 +/- 0.78 sec); type: functional
[18] = test system: Rattus norvegicus; experiment: Cognition enhancement activity in Charles Foster albino rat model of spatial working memory assessed as escape latency at 30 mg/kg, po for administered from day 1 to 10 measured 1 hr post last dose on day 9 by Morris water maze test (reference value: 17.38 +/- 0.79 sec); type: functional
[19] = target: T1, Acetylcholinesterase; experiment: Uncompetitive inhibition of electric eel AChE using varying levels of acetylthiocholine iodide substrate preincubated for 20 mins followed by substrate addition by Lineweaver-Burk plot analysis
[20] = test system: Rattus norvegicus; experiment: Ex vivo inhibition of AChE in Charles Foster albino rat brain assessed as substrate hydrolyzed per mg protein at 30 mg/kg, po measured after 1 hr using acetylthiocholine iodide as substrate by Ellman's method (reference value: 46.56 +/- 0.66 nmol/min); type: functional
[21] = test system: Rattus norvegicus; experiment: Cognition enhancement activity in Charles Foster albino rat model of spatial reference memory assessed as decrease in escape latency at 20 to 30 mg/kg, po administered from day 1 to 2 measured 1 hr post last dose on day 2 by Morris water maze test; type: functional, organism-based
[22] = test system: Rattus norvegicus; experiment: Cognition enhancement activity in Charles Foster albino rat model of spatial working memory assessed as escape latency at 20 mg/kg, po for administered from day 1 to 10 measured 1 hr post last dose on day 7 by Morris water maze test (reference value: 17.45 +/- 0.62 sec); type: functional
[23] = test system: Rattus norvegicus; experiment: Cognition enhancement activity in Charles Foster albino rat model of spatial working memory assessed as escape latency at 20 mg/kg, po for administered from day 1 to 10 measured 1 hr post last dose on day 9 by Morris water maze test (reference value: 17.38 +/- 0.79 sec); type: functional

T1 sequence (O42275 whole entry): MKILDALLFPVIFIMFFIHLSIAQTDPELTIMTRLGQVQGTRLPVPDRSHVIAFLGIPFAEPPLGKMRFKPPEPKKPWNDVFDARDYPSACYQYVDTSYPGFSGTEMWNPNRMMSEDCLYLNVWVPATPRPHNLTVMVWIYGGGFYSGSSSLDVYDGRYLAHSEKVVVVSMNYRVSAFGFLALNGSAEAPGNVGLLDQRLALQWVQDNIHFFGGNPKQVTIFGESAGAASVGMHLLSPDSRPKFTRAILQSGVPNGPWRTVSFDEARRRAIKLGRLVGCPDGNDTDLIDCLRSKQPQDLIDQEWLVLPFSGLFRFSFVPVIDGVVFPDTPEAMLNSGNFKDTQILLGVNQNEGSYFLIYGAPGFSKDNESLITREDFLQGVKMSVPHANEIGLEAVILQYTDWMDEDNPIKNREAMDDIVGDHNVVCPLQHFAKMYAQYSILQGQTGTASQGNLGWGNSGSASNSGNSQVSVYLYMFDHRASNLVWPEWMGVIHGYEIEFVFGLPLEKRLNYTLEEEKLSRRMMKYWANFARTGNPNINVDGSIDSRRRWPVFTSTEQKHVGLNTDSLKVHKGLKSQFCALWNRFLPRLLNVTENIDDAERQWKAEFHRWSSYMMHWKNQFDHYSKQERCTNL
Chain of Cholinesterase (P81908 whole entry): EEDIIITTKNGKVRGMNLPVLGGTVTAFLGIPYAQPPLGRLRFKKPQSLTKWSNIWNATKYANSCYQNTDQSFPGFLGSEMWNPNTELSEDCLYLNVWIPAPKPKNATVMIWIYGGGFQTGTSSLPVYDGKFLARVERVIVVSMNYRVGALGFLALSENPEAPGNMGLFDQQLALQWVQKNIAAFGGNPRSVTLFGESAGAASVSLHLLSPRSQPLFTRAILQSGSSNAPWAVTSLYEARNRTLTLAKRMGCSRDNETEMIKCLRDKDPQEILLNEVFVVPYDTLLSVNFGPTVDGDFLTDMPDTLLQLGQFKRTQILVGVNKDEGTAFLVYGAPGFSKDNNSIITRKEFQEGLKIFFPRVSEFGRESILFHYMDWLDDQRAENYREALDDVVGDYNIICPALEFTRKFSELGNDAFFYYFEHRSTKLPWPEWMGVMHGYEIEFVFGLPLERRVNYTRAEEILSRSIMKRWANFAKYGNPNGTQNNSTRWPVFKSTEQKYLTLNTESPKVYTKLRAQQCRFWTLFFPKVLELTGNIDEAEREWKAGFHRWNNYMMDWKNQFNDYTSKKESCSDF

## COc1cc(/C(C)=N/c2ccc(C(=O)O)cc2)ccc1O
[1]
  Ratio IC50: 214
[2]
  IC50: 3.93 µM
[3]
  IC50: 839 µM

## O=C(O)c1ccc(/N=C/c2ccccc2)cc1
[1]
  Ratio IC50: 39.7
[2]
  IC50: 12.6 µM
[3]
  IC50: 502 µM

## COc1cc(/N=C/c2ccccc2[N+](=O)[O-])cc(OC)c1
[1]
  Ratio IC50: 31.8
[2]
  IC50: 14.3 µM
[3]
  IC50: 457 µM

## COc1cc(/C=N/c2ccc(C(=O)O)cc2)cc(OC)c1OC
[1]
  Ratio IC50: 32.7
[2]
  IC50: 11.5 µM
[3]
  IC50: 378 µM

## COc1ccc(/C(=N\c2ccc(C(=O)O)cc2)c2ccccc2)cc1
[1]
  Ratio IC50: 47.9
[2]
  IC50: 6.09 µM
[3]
  IC50: 292 µM

## COc1ccc(/C(=N\c2cc(OC)cc(OC)c2)c2ccccc2)cc1
[1]
  Ratio IC50: 65.1
[2]
  IC50: 4.37 µM
[3]
  IC50: 284 µM

## O=C(O)c1ccc(/N=C/c2ccc([N+](=O)[O-])cc2)cc1
[1]
  Ratio IC50: 36.5
[2]
  IC50: 5.95 µM
[3]
  IC50: 217 µM

## O=C(O)c1ccc(/N=C/c2ccccc2[N+](=O)[O-])cc1
[1]
  Ratio IC50: 64.5
[2]
  IC50: 6 µM
[3]
  IC50: 387 µM

## COc1cc(/N=C/c2ccccc2O)cc(OC)c1
[1]
  Ratio IC50: 29.2
[2]
  IC50: 25.5 µM
[3]
  IC50: 747 µM

## O=C(O)c1ccc(/N=C/c2ccccc2O)cc1
[1]
  Ratio IC50: 39.8
[2]
  IC50: 18 µM
[3]
  IC50: 717 µM

## COc1cc2c(cc1OC)C(=O)C(CC1CCN(Cc3ccccc3)CC1)C2 (configuration not stated) [DONEPEZIL]
[4]
  Time: 16.88 s
[5]
  Time: 7.78 s
[6]
  Time: 14.38 s
[7]
  Activity: Active
[8]
  Activity: Active
[9]
  Time: 7.33 s
[10]
  Activity: Active
[11]
  Activity: Active

## COc1cc(/N=C/c2cc(OC)c(OC)c(OC)c2)cc(OC)c1
[12]
  Time: 15.69 s
[13]
  Activity: Active
[4]
  Time: 17.57 s
[5]
  Time: 15.12 s
[6]
  Time: 15.45 s
[14]
  Time: 15.23 s
[15]
  Time: 16.87 s
[16]
  Time: 8.92 s
[17]
  Time: 8.87 s
[18]
  Time: 10.37 s
[19]
  Ki: 0.72 µM
[20]
  Activity: 30.85 nmol/min
[1]
  Ratio IC50: 402
[21]
  Activity: Active
[9]
  Time: 10.2 s
[2]
  IC50: 0.82 µM
[3]
  IC50: 328 µM
[10]
  Activity: Active
[22]
  Time: 16.95 s
[23]
  Time: 12.23 s
[11]
  Activity: Active

## COc1cc(/N=C/c2ccc([N+](=O)[O-])cc2)cc(OC)c1
[1]
  Ratio IC50: 64.5
[2]
  IC50: 7.01 µM
[3]
  IC50: 452 µM
